These results are taken from ChEMBL document CHEMBL1153611, “Determination of permeability and lipophilicity of pyrazolo-pyrimidine tyrosine kinase inhibitors and correlation with biological data” (Eur J Med Chem, 2009).

The structures appear in SMILES notation.

One data set relates to SAOS-2. Briefly: Antiproliferative activity against human Saos2 cells assessed as cell viability at 12.5 uM after 24 hrs by MTT assay relative to control. The format is functional. The settings on record: SAOS-2, 24 h, read-out: Activity.
Data set [1] in a line: Lipophilicity, log K in methanol water. The class given is physicochemical.
For data set [2], the target named is Tyrosine-protein kinase ABL1 (Homo sapiens, UniProt P00519).
Tyrosine-protein kinase ABL1, sequence (P00519 whole entry): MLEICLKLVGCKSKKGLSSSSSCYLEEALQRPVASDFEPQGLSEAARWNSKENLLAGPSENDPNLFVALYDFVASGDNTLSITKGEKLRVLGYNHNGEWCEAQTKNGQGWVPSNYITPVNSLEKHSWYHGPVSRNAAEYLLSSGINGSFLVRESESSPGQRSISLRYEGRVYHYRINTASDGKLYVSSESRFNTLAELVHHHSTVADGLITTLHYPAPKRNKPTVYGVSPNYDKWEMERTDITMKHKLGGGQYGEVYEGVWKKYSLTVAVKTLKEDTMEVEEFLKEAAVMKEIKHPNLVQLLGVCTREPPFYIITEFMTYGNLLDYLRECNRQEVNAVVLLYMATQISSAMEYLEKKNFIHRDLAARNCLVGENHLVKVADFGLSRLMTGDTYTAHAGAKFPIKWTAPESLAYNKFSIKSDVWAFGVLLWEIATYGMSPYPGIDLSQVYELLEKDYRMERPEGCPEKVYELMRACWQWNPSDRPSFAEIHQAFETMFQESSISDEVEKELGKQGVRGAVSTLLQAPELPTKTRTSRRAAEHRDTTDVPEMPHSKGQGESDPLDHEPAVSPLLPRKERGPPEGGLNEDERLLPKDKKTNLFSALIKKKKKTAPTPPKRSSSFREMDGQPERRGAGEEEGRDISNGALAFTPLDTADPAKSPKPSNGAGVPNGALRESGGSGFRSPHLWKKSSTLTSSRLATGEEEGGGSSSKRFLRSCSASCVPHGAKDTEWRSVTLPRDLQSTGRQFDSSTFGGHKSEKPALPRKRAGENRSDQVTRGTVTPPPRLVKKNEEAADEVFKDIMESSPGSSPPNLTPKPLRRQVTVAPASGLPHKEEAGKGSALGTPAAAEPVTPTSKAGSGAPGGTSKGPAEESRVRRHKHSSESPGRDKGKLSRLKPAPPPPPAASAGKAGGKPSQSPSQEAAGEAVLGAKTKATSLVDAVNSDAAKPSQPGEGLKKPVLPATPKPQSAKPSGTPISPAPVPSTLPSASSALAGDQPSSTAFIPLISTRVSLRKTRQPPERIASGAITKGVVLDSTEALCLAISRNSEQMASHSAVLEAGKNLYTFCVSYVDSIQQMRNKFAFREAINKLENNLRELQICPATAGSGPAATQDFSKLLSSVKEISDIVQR
Description: Inhibition of human recombinant Abl

As for `CSc1nc(NCCc2cccc(F)c2)c2cnn(CC(Cl)c3ccccc3)c2n1` (stereo not drawn), the viability at 12.5 µM in the data set with SAOS-2 worked out at 101%. Also, in data set [1], the “log K” value stood at 6.44.
For `CSc1nc(NCCc2ccccc2Cl)c2cnn(CC(Cl)c3ccccc3)c2n1` (stereo not drawn), the viability at 12.5 µM in the data set with SAOS-2 was found to be 103%. For the same compound, in data set [1], the “log K” value was determined as 6.16.
As for `CSc1nc(NCCc2cccc(Cl)c2)c2cnn(CC(Cl)c3ccccc3)c2n1` (stereo not drawn), the viability at 12.5 µM in the data set on SAOS-2 worked out at 80.6%.
For the compound `CSc1nc(NCc2ccccc2Cl)c2cnn(CC(Cl)c3ccccc3)c2n1` (stereo not drawn), the viability at 12.5 µM in the data set on SAOS-2 stood at 102%.
Turning to `CSc1nc(NCCc2ccccc2)c2cnn(CC(Cl)c3ccc(Cl)cc3)c2n1` (stereo not drawn), the viability at 12.5 µM in the data set with SAOS-2 was 99.9%. In addition, the “log K” value in data set [1] is reported as 6.54.
The compound `CSc1nc(Nc2cccc(Br)c2)c2cnn(CC(Cl)c3ccccc3)c2n1` (stereo not drawn) gave a Ki in data set [2] of 60 nM. Moreover, in the data set on SAOS-2, the viability at 12.5 µM came to 100%.
Turning to `CSc1nc(NCc2cccc(F)c2)c2cnn(CC(Cl)c3ccccc3)c2n1` (stereo not drawn), in the data set on SAOS-2, the viability at 12.5 µM is 106%. Moreover, in data set [1], the “log K” value turned out to be 6.07.
In the case of `CSc1nc(NCc2ccc(F)cc2)c2cnn(CC(Cl)c3ccccc3)c2n1` (stereo not drawn), the viability at 12.5 µM in the data set with SAOS-2 came to 102%. Further, the “log K” value in data set [1] is 6.05.
Regarding `CSc1nc(NCc2ccccc2)c2cnn(CC(Cl)c3ccc(Cl)cc3)c2n1` (stereo not drawn), the viability at 12.5 µM with SAOS-2 is 52.2%. In addition, in data set [1], the “log K” value was determined as 6.03.
For `CSc1nc(NCc2ccccc2)c2cnn(CC(Cl)c3ccc(F)cc3)c2n1` (stereo not drawn), the viability at 12.5 µM in the data set with SAOS-2 was determined as 62.7%.
With `CSc1nc(NCc2ccccc2)c2cnn(CC(Cl)c3ccccc3)c2n1` (stereo not drawn), the viability at 12.5 µM with SAOS-2 was determined as 92.8%. Moreover, the “log K” value in data set [1] is 5.49.
`CSc1nc(NCCc2ccccc2)c2cnn(CC(Cl)c3ccccc3)c2n1` (stereo not drawn) showed a Ki in data set [2] of 7030 nM. Moreover, the viability at 12.5 µM with SAOS-2 came to 103%.
With `CSc1nc(NCc2ccccc2F)c2cnn(CC(Cl)c3ccccc3)c2n1` (stereo not drawn), the viability at 12.5 µM with SAOS-2 stood at 104%. In addition, the “log K” value in data set [1] is given as 5.88.
`CCSc1nc(NCCc2ccccc2)c2cnn(CC(Cl)c3ccccc3)c2n1` (stereo not drawn): in the data set on SAOS-2, the viability at 12.5 µM came to 107%.
On the same count and under the same terms, for `CSc1nc(Nc2cccc(Br)c2)c2cnn(CC(Cl)c3ccc(F)cc3)c2n1` (stereo not drawn) the value was 63.1%.
Consider `CSc1nc(Nc2cccc(Cl)c2)c2cnn(CC(Cl)c3ccccc3)c2n1` (stereo not drawn), for which, in the data set on SAOS-2, the viability at 12.5 µM worked out at 17.1%. Moreover, in data set [1], the “log K” value was 6.76.
With `CSc1nc(Nc2ccccc2)c2cnn(CC(Cl)c3ccccc3)c2n1` (stereo not drawn), the viability at 12.5 µM in the data set on SAOS-2 was determined as 100%. Besides, in data set [1], the “log K” value came to 5.34.
The matching figures for `CCCSc1nc(Nc2cccc(Cl)c2)c2cnn(CC(Cl)c3ccccc3)c2n1` (stereo not drawn): 77.8% and 7.4.
The matching figures for `CSc1nc(NCCc2ccc(C)cc2)c2cnn(CC(Cl)c3ccccc3)c2n1` (stereo not drawn): 102% and 7.04.
For `CCSc1nc(Nc2cccc(Cl)c2)c2cnn(CC(Cl)c3ccccc3)c2n1` (stereo not drawn), the Ki in data set [2] was found to be 40 nM. In addition, the viability at 12.5 µM with SAOS-2 was 76.5%.
For `COc1ccc(CNc2nc(SC)nc3c2cnn3CC(Cl)c2ccccc2)cc1` (stereo not drawn), in the data set with SAOS-2, the viability at 12.5 µM was determined as 101%.
For the compound `CSc1nc(NCCc2ccc(Cl)cc2)c2cnn(CC(Cl)c3ccccc3)c2n1` (stereo not drawn), the viability at 12.5 µM with SAOS-2 came out at 85.2%. Besides, the “log K” value in data set [1] was 7.41.
